Data taken from US7129267B2, “Methods for SHP1 mediated neuroprotection” (Janssen Pharmaceutica N.V., priority 2002, dated 2006).

target: SHP1 (Homo sapiens, UniProt P29350); test: SHP1 tyrosine phosphatase activity inhibition assay; type: biochemical; conditions: under the assay conditions
Description: The invention further provides a method of identifying an inhibitor of a SHP1 tyrosine phosphatase activity, comprising the steps of: • 1) contacting a test compound with a SHP1 protein or an active fragment thereof; and • 2) determining the ability of the test compound to decrease the tyrosine phosphatase activity of SHP1.
A variety of assay methods can be used to determine the effect of the compound on the tyrosine phosphatase activity of SHP1. Some of the assay methods are disclosed in WO99/54450. For example, SHP1 phosphotase activity can be measured as a function of the ability of SHP1 to dephosphorylate a substrate, such as a phosphorylated JAK2. In particular, a phosphorylated peptide derived from JAK2. The dephosphorylation reaction can be monitored using a malachite green assay (Lanzetta et al., Anal Biochem. 1979, 100:95–7), which measures the release of inorganic phosphate from the substrate. Alternatively, SHP1 phosphotase activity can be measured in vivo by changes in cellular physiology affected by the SHP1 phosphotase activity, such as the inactivation of the EPOR signal transduction pathway.
Compounds of Formula I, II, and III were identified as inhibitors for SHP1 tyrosine phosphatase activity using methods of the invention.

SHP1, sequence (P29350 whole entry, the tested form may be a part): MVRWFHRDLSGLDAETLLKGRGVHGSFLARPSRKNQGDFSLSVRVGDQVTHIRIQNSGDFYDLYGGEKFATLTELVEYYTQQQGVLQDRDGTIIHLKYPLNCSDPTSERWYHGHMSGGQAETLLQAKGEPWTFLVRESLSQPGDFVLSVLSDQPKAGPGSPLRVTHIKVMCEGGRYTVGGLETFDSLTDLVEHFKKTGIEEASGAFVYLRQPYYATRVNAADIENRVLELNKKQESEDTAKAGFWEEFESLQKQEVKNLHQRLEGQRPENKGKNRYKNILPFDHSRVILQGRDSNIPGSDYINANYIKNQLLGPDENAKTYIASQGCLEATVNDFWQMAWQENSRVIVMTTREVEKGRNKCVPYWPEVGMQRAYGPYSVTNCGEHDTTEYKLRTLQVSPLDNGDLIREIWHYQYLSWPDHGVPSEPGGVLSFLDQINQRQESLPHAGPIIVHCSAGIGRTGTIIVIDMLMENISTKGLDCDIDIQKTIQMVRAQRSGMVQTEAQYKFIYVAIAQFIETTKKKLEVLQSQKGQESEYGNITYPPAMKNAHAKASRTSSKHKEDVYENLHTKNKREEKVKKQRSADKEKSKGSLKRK

IC50 [µM]	SMILES
22	O=C(O)/C=C/c1ccc(/C=C/C(=O)O)s1
25.7	CC(=O)Nc1ccc(/C=C2/SC(=S)NC2=O)cc1
4.3	O=C1CSC(=S)N1CNc1ccc(NCN2C(=O)CSC2=S)cc1
